In patent US11753635B2, “Methods and systems and related compositions for mixtures separation with a solid matrix” (CALIFORNIA INSTITUTE OF TECHNOLOGY, priority 2017, dated 2023):

What was measured:
[1] = cited from earlier work
[2] = system: LAMP reaction on lambda phage DNA; test: LAMP with contaminants (Example 4); assay type: biochemical; details: 10% additive (1 uL in 10 uL reaction)
Method: LAMP reactions were carried out using standard conditions provided by NEB with slight modifications. LAMP solutions were provided by NEB unless otherwise noted. The final solution contained 1× Isothermal Amplification Buffer I, 1.4 mM dNTPs, 7 mM MgSO4 (5 mM+2 mM in buffer), WarmStart Bst 2.0 (320 U/mL), 1 mg/mL BSA (Ambion) Lambda phage LAMP primers (standard desalted, Integrated DNA Technologies) at concentrations 0.2 uM F3/B3, 1.6 uM FIP/BIP, 0.4 uM LoopF/B as previously developed by Goto in 2009 were used. Reactions were made to a total of 10 uL comprised of 5 uL concentrated reaction mix and 5 uL of purified nucleic acids from the various extraction conditions (NF—H2O for negative control). For positive controls, 5 uL purified lambda phage DNA ([…]) was added to each reaction and for 5 uL template from nucleic acid extractions or each sample was tested in triplicate (n=3) and solutions were made to either 9 uL or 10 uL. The LAMP reaction was carried out by heating to 68° C. and all of the wells were tracked in real-time (image every 35 s) on the BioRad CFX-96 system. Samples were deemed negative if they […] over 30 min. Cycle times were determined automatically using the BioRad analysis software and converted to time-to-positive in minutes. […]

Row | Structure (SMILES) | Water solubility at 25° C. [1] | also measured
1 | CCCCCO [1 pentanol] | 2.2 g/100 mL | 
2 | CCCCCCCCCCCCCO [1 tridecanol] |  | Water solubility at 25° C. (in words) ([1]; explained as a solubility of 1 g per 10 L of solvent): practically insoluble (a
3 | CCCCCCCCO [1-octanol] | 0.03 g/100 mL | Delay in LAMP (time-to-positive) ([2]; versus 10 uL positive control): 1.4 min
4 | CCCCC(O)CCCC [5-nonanol] | 0.046 g/100 mL | 
5 | CCCCCCCCCCCCCCCCCCCCO [Arachidyl Alcohol (20 ol), Arachidyl Alcohol] | 0.151 ug/100 mL | 
6 | CCO [ethanol, reference compound] |  | Inhibition of the LAMP reaction ([2]; no amplification for at least 30 min): completely inhibits the LAMP reaction
